Assay results taken from ChEMBL document CHEMBL1154462, “Synthesis and in vitro anti-bacterial evaluation of tetracyclic-ortho-fused 4H-naphtho[1',2'-5,6]pyrano[3,4-d](1,2,3)selenadiazole and its derivatives” (2008).
Converted amounts (≈) assume the structure as drawn.

Key:
Format in all cases: functional
Bacillus subtilis = assay: Antibacterial activity against Bacillus subtilis isolate by agar cup method
Escherichia coli = assay: Antibacterial activity against Escherichia coli isolate by agar cup method
Pseudomonas aeruginosa = assay: Antibacterial activity against Pseudomonas aeruginosa isolate by agar cup method
Staphylococcus aureus = assay: Antibacterial activity against Staphylococcus aureus isolate by agar cup method

SMILES | MIC (Bacillus subtilis) [µg/mL] | MIC (Escherichia coli) [µg/mL] | MIC (Pseudomonas aeruginosa) [µg/mL] | MIC (Staphylococcus aureus) [µg/mL]
CC1Oc2ccc3ccccc3c2-c2nn[se]c21 (stereo not given) | 250 (≈ 830 µM) | 500 (≈ 1660 µM) | 1000 (≈ 3320 µM) | 250 (≈ 830 µM)
Brc1cccc2c3c(ccc12)OCc1[se]nnc1-3 | 100 (≈ 273 µM) | 250 (≈ 683 µM) | 1000 (≈ 2730 µM) | 50 (≈ 137 µM)
c1ccc2c3c(ccc2c1)OCc1[se]nnc1-3 | 250 (≈ 871 µM) | 250 (≈ 871 µM) | 1000 (≈ 3480 µM) | 250 (≈ 871 µM)
Brc1ccc2c3c(ccc2c1)OCc1[se]nnc1-3 | 100 (≈ 273 µM) | 50 (≈ 137 µM) | 500 (≈ 1370 µM) | 50 (≈ 137 µM)
CC1Oc2ccc3cc(Br)ccc3c2-c2nn[se]c21 (stereo not given) | 50 (≈ 132 µM) | 500 (≈ 1320 µM) | 1000 (≈ 2630 µM) | 500 (≈ 1320 µM)
